From ChEMBL document CHEMBL6114940, “Exploring the pharmaceutical potential of ammonium organotrifluoroborate functional group: Comprehensive chemical, metabolic, and plasma stability evaluation” (Eur J Med Chem, 2024) come the findings set out here.

Data set [1] in a line: Stability of compound in Tris-HCL buffer at pH 7.4 assessed as N-(boronomethyl)-N-butyl-N-(2-(2-(2-(((2R,3R,4S,5S,6R)-3,4,5-trihydroxy-6-(hydroxymethyl)tetrahydro-2H-pyran-2-yl)oxy)ethoxy)ethoxy)ethyl)butan-1-aminium formation incubated for 72 hrs by LC-MS analysis. As to conditions: pH 7.4, 72 h. It is filed as physicochemical.
The nature of data set [2]: Stability of compound in 0.5 M NaOH assessed as half life incubated for 72 hrs by LC-MS analysis. It is filed as physicochemical.
Data set [3] can be described thus: Stability of compound in 0.5 M NaOH assessed as solvolysis constant (K) incubated for 72 hrs by LC-MS analysis. It is filed as physicochemical. Also noted: unit not given beside the values.
The nature of data set [4]: Stability of compound in 0.3 % H2O2 assessed as (2R,3R,4S,5S,6R)-2-(2-(2-(2-(dibutylamino)ethoxy)ethoxy)ethoxy)-6-(hydroxymethyl)tetrahydro-2H-pyran-3,4,5-triol formation incubated for 1 hrs by LC-MS analysis. It is filed as physicochemical.
The nature of data set [5]: Stability of compound in 50 mM HCL assessed as N-(boronomethyl)-N-butyl-N-(2-(2-(2-(((2R,3R,4S,5S,6R)-3,4,5-trihydroxy-6-(hydroxymethyl)tetrahydro-2H-pyran-2-yl)oxy)ethoxy)ethoxy)ethyl)butan-1-aminium formation incubated for 72 hrs by LC-MS analysis. Type of data set: physicochemical. The note with it: buffer.
Data set [6] can be described thus: Stability of compound in 0.05 M HCL assessed as solvolysis constant (K) incubated for 72 hrs by LC-MS analysis. Type of data set: physicochemical. On the set-up: unit not given beside the values. The note with it: buffer.
Data set [7] can be described thus: Stability of compound in 50 mM Tris-HCL buffer at pH 7.4 assessed as half life incubated for 72 hrs by LC-MS analysis. Type of data set: physicochemical.
A short description of data set [8]: Stability of compound in 50 mM Tris-HCL buffer at pH 7.4 assessed as solvolysis constant (K) incubated for 72 hrs by LC-MS analysis. Type of data set: physicochemical. The note with it: pH 7.4, 72 h.
The nature of data set [9]: Stability of compound in 0.5 M NaOH assessed as N-(boronomethyl)-N-butyl-N-(2-(2-(2-(((2R,3R,4S,5S,6R)-3,4,5-trihydroxy-6-(hydroxymethyl)tetrahydro-2H-pyran-2-yl)oxy)ethoxy)ethoxy)ethyl)butan-1-aminium formation incubated for 72 hrs by LC-MS analysis. Type of data set: physicochemical.
A short description of data set [10]: Stability of compound in 20 mM CH3COONH4 buffer at pH 5.8 assessed as N-(boronomethyl)-N-butyl-N-(2-(2-(2-(((2R,3R,4S,5S,6R)-3,4,5-trihydroxy-6-(hydroxymethyl)tetrahydro-2H-pyran-2-yl)oxy)ethoxy)ethoxy)ethyl)butan-1-aminium formation incubated for 72 hrs by LC-MS analysis. Type of data set: physicochemical. The note with it: pH 5.8, 72 h.
Data set [11] in a line: Stability of compound in 20 mM CH3COONH4 buffer at pH 5.8 assessed as half life incubated for 72 hrs by LC-MS analysis. It is filed as physicochemical. The note with it: 20 mM ammonium acetate (CH3COONH4) buffer.
Data set [12] can be described thus: Stability of compound in phosphate/D2O buffer at pH 7.4 assessed as drug hydrolysis by measuring N-(boronomethyl)-N-butyl-N-(2-(2-(2-(((2R,3R,4S,5S,6R)-3,4,5-trihydroxy-6-(hydroxymethyl)tetrahydro-2H-pyran-2-yl)oxy)ethoxy)ethoxy)ethyl)butan-1-aminium formation incubated for 72 hrs by LC-MS analysis. It is filed as physicochemical. The note with it: pH 7.4, 72 h.

Data set [13] is described as follows: Metabolic stability in mouse liver microsomes assessed as drug hydrolysis by measuring N-(boronomethyl)-N-butyl-N-(2-(2-(2-(((2R,3R,4S,5S,6R)-3,4,5-trihydroxy-6-(hydroxymethyl)tetrahydro-2H-pyran-2-yl)oxy)ethoxy)ethoxy)ethyl)butan-1-aminium formation incubated for 1 hr by LC-MS/MS analysis. It is filed as ADME, Microsome. (In general: Microsomes from liver hold many membrane-bound enzymes, among them those of drug oxidation.)

A short description of data set [14]: Stability of compound in 0.05 M HCL assessed as half life incubated for 72 hrs by LC-MS analysis. It is filed as physicochemical.
Data set [15] is described as follows: Stability of compound in 20 mM CH3COONH4 buffer at pH 5.8 assessed as solvolysis constant (K) incubated for 72 hrs by LC-MS analysis. Type of data set: physicochemical. Also noted: unit not given beside the values. As to conditions: pH 5.8, 72 h.
Data set [16] can be described thus: Stability in mouse plasma measured after 1 hr by LC-HRMS analysis. The note with it: read-out: Stability. It is filed as ADME, cell-free.
Data set [17] is described as follows: Stability of compound in 0.9 % saline solution assessed as solvolysis constant (K) incubated for 72 hrs by LC-MS analysis. As to conditions: buffer. Type of data set: physicochemical.
A short description of data set [18]: Stability of compound in 0.5 M NaOH assessed as N-butyl-N-methyl-N-(2-(2-(2-(((2R,3R,4S,5S,6R)-3,4,5-trihydroxy-6-(hydroxymethyl)tetrahydro-2H-pyran-2-yl)oxy)ethoxy)ethoxy)ethyl)butan-1-aminium formation incubated for 72 hrs by LC-MS analysis. Type of data set: physicochemical.
Data set [19] can be described thus: Stability of compound in 0.9 % saline solution assessed as N-(boronomethyl)-N-butyl-N-(2-(2-(2-(((2R,3R,4S,5S,6R)-3,4,5-trihydroxy-6-(hydroxymethyl)tetrahydro-2H-pyran-2-yl)oxy)ethoxy)ethoxy)ethyl)butan-1-aminium formation incubated for 72 hrs by LC-MS analysis. Type of data set: physicochemical. The note with it: buffer.
The nature of data set [20]: Stability of compound in 0.9 % saline solution assessed as half life incubated for 72 hrs by LC-MS analysis. It is filed as physicochemical.

Usually half-life stands for the time in which the quantity being followed falls by half. Consider `CCCC[N+](CCCC)(CCOCCOCCO[C@@H]1O[C@H](CO)[C@@H](O)[C@H](O)[C@H]1O)C[B-](F)(F)F`, for which the Stability result in [1], in [4], in data set [5], in data set [9], in [10] and in [12] was “Stable” in each case. For the same molecule, the Stability entry in data set [18] and in data set [19] was “Stable” in each case. For the same molecule, the half-life in [2] was 8.47 h; in data set [7], 8.07 h; in data set [11] it was 22.8 h; in data set [14] it was 0.265 h; in [20], 6.82 h. The K stood at 0.082 in data set [3]; 2.617 in data set [6]; 0.086 in [8]; 0.03 in data set [15]; 0.102 in [17]. Moreover, the Drug metabolism result in data set [13] was “metabolite_detected”. In addition, in data set [16], the remaining at 1 h turned out to be 8.89%.
